Data taken from patent US8664258B2, “Primary amines and derivatives thereof as modulators of the 5-HT2A serotonin receptor useful for the treatment of disorders related thereto” (Arena Pharmaceuticals, Inc., priority 2006, dated 2014).
Structures can show the parent of a compound that is named as a salt.

biological target: human 5-HT2A receptor (Homo sapiens (Human), UniProt P28223); experiment: [125I]DOI radioligand binding assay; details: 0.5 nM [125I]DOI, membranes of COS7 cells transfected with human 5-HT2A receptor
Protocol: For the IP accumulation assay (Example 10), HEK293 cells were transfected while for the DOI binding assay (Example 11) COS7 cells were transfected. Several protocols well known in the art can be used to transfect cells. The following protocol is representative of the transfection procedures used herein for COS7 or 293 cells.
On day one, COS-7 cells were plated onto 24 well plates, usually 1×10^5 cells/well or 2×10^5 cells/well, respectively. On day two, the cells were transfected by first mixing 0.25 μg cDNA in 50 μL serum-free DMEM/well and then 2 μl lipofectamine in 50 μL serum-free DMEM/well. The solutions (“transfection media”) were gently mixed and incubated for 15-30 minutes at room temperature. The cells were washed with 0.5 mL PBS and then 400 μL of serum free media was mixed with the transfection media and added to the cells. The cells were then incubated for 3-4 hours at 37° C./5% CO2. Then the transfection media was removed and replaced with 1 mL/well of regular growth media.
Compounds of the invention were tested for their ability to bind to a 5-HT2A receptor clone membrane preparation using a radioligand binding assay. Briefly, COS cells were transiently transfected with a pCMV expression vector containing a human 5-HT2A receptor (for the sequence of the receptor see U.S. Pat. No. 6,541,209, SEQ ID NO:24) as described in Example 9.
COS7 cells transfected with recombinant human 5-HT2A receptors were cultured for 48 hr post transfection, collected, washed with ice-cold phosphate buffered saline, pH7.4 (PBS), and then centrifuged at 48,000×g for 20 min at 4° C. The cell pellet was then resuspended in wash buffer containing 20 mM HEPES pH 7.4 and 0.1 mM EDTA, homogenized on ice using a Brinkman polytron, and recentrifuged at 48,000×g for 20 min. at 4° C. The resultant pellet was then resuspended in 20 mM HEPES, pH 7.4, homogenized on ice, and centrifuged (48,000×g for 20 min at 4° C.). Crude membrane pellets were stored at −80° C. until used for radioligand binding assays.
Radioligand binding assays for human 5-HT2A receptor was conducted using the 5-HT2 agonist [^125]DOI as radioligand. To define nonspecific binding, 10 μM DOI was used for all assays. For competitive binding studies, 0.5 nM [^125]DOI was used and compounds were assayed over a range of 0.01 nM to 10 μM. Assays were conducted in a total volume of 200 μl in 96-well Perkin Elmer GF/C filter plates in assay buffer (50 mM Tris-HCl, pH 7.4, 0.5 mM EDTA, 5 mM MgCl2, and 10 μM pargyline). Assay incubations were performed for 60 min at room temperature and were terminated by rapid filtration under vacuum pressure of the reaction mixture over Whatman GF/C glass fiber filters presoaked in 0.5% PEI using a Brandell cell harvestor. Filters were then washing several times with ice-cold wash buffer (50 mM Tris-HCl, pH 7.4). Plates were then dried at room temperature and counted in a Wallac microBeta scintillation counter.

human 5-HT2A receptor, sequence (P28223 whole entry): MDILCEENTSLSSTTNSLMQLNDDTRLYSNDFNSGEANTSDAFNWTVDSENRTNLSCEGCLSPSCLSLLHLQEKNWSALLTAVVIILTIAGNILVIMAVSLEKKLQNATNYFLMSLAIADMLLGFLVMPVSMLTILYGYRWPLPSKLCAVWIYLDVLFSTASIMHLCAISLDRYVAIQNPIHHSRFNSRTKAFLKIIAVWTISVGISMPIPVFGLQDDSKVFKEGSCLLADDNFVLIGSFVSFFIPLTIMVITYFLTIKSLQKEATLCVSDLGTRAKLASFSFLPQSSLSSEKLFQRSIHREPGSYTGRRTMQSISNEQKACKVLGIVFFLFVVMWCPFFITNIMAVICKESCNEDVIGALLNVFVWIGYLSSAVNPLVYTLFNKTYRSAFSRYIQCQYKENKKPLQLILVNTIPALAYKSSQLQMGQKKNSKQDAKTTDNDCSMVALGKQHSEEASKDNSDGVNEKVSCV

Question: For Cn1nccc1-c1cc(NC(=O)C(=O)c2ccc(F)cc2)ccc1OCCN [Compound 32, N-[4-(2-Amino-ethoxy)-3-(2-methyl-2H-pyrazol-3-yl)-phenyl]-2-(4-fluoro-phenyl)-2-oxo-acetamide], which IC50 is on record?
Answer: The IC50 was 0.025 nM.

Question: With Cn1ncc(Cl)c1-c1cc(NC(=O)c2cc(Br)cs2)ccc1OCCN [Compound 77, 4-bromo-thiophene-2-carboxylic acid [4-(2-amino-ethoxy)-3-(4-chloro-2-methyl-2H-pyrazol-3-yl)-phenyl]-amide trifluoroacetate] as the compound, how does the IC50 read?
Answer: Its IC50 is 1.2 nM.

Question: For Cn1nccc1-c1cc(NC(=O)c2ccno2)ccc1OCCN [Compound 106, Isoxazole-5-carboxylic acid [4-(2-amino-ethoxy)-3-(2-methyl-2H-pyrazol-3-yl)-phenyl]-amide], which IC50 is on record?
Answer: Its IC50 is 91 nM.

Question: With Cn1ncc(Cl)c1-c1cc(NC(=O)c2ccc(F)c(C(F)(F)F)c2)ccc1OCCN [Compound 197, N-[4-(2-amino-ethoxy)-3-(4-chloro-2-methyl-2H-pyrazol-3-yl)-phenyl]-4-fluoro-3-trifluoromethyl-benzamide trifluoroacetate] as the compound, how does the IC50 read?
Answer: The IC50 was 1 nM.

Question: For Cn1ncc(Cl)c1-c1cc(NC(=O)C2CCC(C(F)(F)F)CC2)ccc1OCCN (stereo not shown) [Compound 303, 4-trifluoromethyl-cyclohexanecarboxylic acid [4-(2-amino-ethoxy)-3-(4-chloro-2-methyl-2H-pyrazol-3-yl)-phenyl]-amide trifluoroacetate], which IC50 is on record?
Answer: The IC50 was 0.26 nM.

test system: JC virus; experiment: not given; details: cited from earlier work

Question: Which “JC virus infection of human glial cells” value does the source give for O=C(c1ccc(F)cc1)C1CCN(CCn2c(=O)[nH]c3ccccc3c2=O)CC1 [ketanserin] here?
Answer: The value was “inhibited”.

Question: With Cc1nc2sccn2c(=O)c1CCN1CCC(=C(c2ccc(F)cc2)c2ccc(F)cc2)CC1 [ritanserin] as the compound, how does the “JC virus infection of human glial cells” value read?
Answer: The value was “inhibited”.
